These molecules were tested against HPK1 (Homo sapiens (Human), UniProt Q92918) (assay: HPK1 biochemical enzyme assay (microfluidic mobility shift assay)). Details: 1.5 nM HPK1, ATP 1 mM final, 30 min preincubation, 60 min at RT, Caliper EZ Reader; read-out: HPK1 1000UMATP caliper IC50.
Chain of HPK1 (Q92918 whole entry): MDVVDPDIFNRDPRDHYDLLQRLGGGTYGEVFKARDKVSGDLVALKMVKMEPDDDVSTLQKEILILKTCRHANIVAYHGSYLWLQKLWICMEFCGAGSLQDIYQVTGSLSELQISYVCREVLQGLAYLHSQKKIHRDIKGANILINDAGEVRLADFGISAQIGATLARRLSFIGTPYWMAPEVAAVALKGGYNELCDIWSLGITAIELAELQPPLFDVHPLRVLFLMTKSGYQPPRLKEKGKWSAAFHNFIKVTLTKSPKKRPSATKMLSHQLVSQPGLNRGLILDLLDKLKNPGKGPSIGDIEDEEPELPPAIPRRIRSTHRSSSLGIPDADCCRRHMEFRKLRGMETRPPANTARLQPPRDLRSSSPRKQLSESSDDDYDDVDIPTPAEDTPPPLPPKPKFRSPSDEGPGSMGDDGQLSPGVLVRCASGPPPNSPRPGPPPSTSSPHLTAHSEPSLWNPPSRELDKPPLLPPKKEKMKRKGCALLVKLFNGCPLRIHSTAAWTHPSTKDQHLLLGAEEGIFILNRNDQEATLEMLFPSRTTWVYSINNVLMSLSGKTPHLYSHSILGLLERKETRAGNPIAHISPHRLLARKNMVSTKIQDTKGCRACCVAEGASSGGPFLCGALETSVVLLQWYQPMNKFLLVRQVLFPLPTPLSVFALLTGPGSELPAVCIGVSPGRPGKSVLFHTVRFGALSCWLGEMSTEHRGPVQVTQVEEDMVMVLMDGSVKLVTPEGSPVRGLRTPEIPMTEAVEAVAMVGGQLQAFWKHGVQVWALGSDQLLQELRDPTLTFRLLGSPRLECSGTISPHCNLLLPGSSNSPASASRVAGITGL
Procedure, shortened: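 Ten-point compound titrations (top 3 μM final) preincubated 30 min with HPK1 and substrate, then reaction started with 1 mM ATP and 1 μM substrate, 5 mM MgCl2. After 60 min at RT, reaction terminated and product measured by microfluidic mobility shift.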
CN1CCc2ccc(Nc3cnc(-c4ccnc5c4ccn5C)c4c3C(=O)NC4)nc2C1 [I-418, 4-(1-methyl-1H-pyrrolo[2,3-b]pyridin-4-yl)-7-((7-methyl-5,6,7,8-tetrahydro-1,7-naphthyridin-2-yl)amino)-2,3-dihydro-1H-pyrrolo[3,4-c]pyridin-1-one] showed an IC50 of over 1000 nM.
Work on CN1CCN(c2ccc(Nc3ccc(-c4c(-c5ccccc5)[nH]c5ccccc45)c4c3C(=O)NC4)nc2)CC1 [I-40, 7-[[5-(4-methylpiperazin-1-yl)-2-pyridyl]amino]-4-(2-phenyl-1H-indol-3-yl)isoindolin-1-one] yielded an IC50 of under 100 nM.
In the case of O=C1NCc2c(-c3cnc4cc(F)ccn34)ccc(Nc3cccc(O[C@H]4CCC[C@H]4O)n3)c21 (stereo in doubt) [I-354, 4-(7-fluoroimidazo [1,2-a]pyridin-3-yl)-7-((6-(((lR,2S)-2-hydroxycyclopentyl)oxy)pyri-din-2-yl)amino)isoin-dolin-1-one], the IC50 is reported as over 1000 nM.
Molecule C[C@@H](c1nc(Nc2ccc(-c3cnc4cc(F)ccn34)c3c2C(=O)NC3)ccc1[C@H]1CCOC1)N(C)C (single isomer, unassigned) [I-818] has an IC50 of 100 to 1000 nM.
In the case of Cn1ccc2c(-c3ncc(Nc4cccc(N5CC[C@H](N6CCCC6)C5)n4)c4c3CNC4=O)ccnc21 [I-443, (S)-7-((6-([1,3-bipynolidin]-1′-yl)pyridin-2-yl)amino)-4-(1-methyl-1H-pyrrolo[2,3-b]pyridin-4-yl)-2,3-dihydro-1H-pyrrolo[3,4-c]pyridin-1-one], the IC50 is reported as under 100 nM.
Work on CN1CCN(c2ccc(Nc3ccc(-c4ccnc5[nH]ccc45)c4c3C(=O)NC4)nc2)CC1 [I-31, 7-[[5-(4-methylpiperazin-1-yl)-2-pyridyl]amino]-4-(1H-pyrrolo[2,3-b]pyridin-4-yl)-isoindolin-1-one] yielded an IC50 of under 100 nM.
Molecule Cc1ccn2c(-c3ccc(Nc4ccc(N5CCOC(CN(C)C)C5)cn4)c4c3CNC4=O)cnc2c1F (stereo in doubt) [I-613, (S)-7-((5-(2-((dimethylamino)-methyl)mor-pholino)pyridin-2-yl)amino)-4-(8-fluoro-7-methylimidazo [1,2-a]pyridin-3-yl)isoindolin-1-one] has an IC50 of under 100 nM.
In the case of COc1ccc2c(-c3ncc(Nc4ccc(N5CCN(C)CC5)cn4)c4c3CNC4=O)c[nH]c2c1 [I-4, 4-(6-methoxy-1H-indol-3-yl)-7-[[5-(4-methylpiperazin-1-yl)-2-pyridyl]amino]-2,3-dihydropyrrolo [3,4-c]pyridin-1-one], the IC50 is reported as 100 to 1000 nM.
Work on C[C@@H](O)[C@@H]1CN(c2ccc(Nc3ccc(-c4cnc5cc(F)ccn45)c4c3C(=O)NC4)nc2)CCO1 [I-635, 4-(7-fluoroimidazo[1,2-a]pyridin-3-yl)-7-((5-((S)-2-((R)-1-hydroxyethyl)morpholino)pyridin-2-yl)amino)isoindolin-1-one] yielded an IC50 of under 100 nM.
Work on CNC(C)(C)[C@@H]1CN(c2ccc(Nc3ccc(-c4cnc5cc(F)ccn45)c4c3C(=O)NC4)nc2)CCO1 (single isomer, unassigned) [I-675] yielded an IC50 of under 100 nM.
O=C1NCc2c(-c3cnn4ccccc34)ccc(Nc3ccc(N4CCNCC4)cn3)c21 [I-90, 7-[(5-piperazin-1-yl-2-pyridyl)amino]-4-pyrazolo[1,5-a]pyridin-3-yl-isoindolin-1-one] showed an IC50 of under 100 nM.
For CN(C[C@@H]1CN(c2ccc(Nc3ccc(-c4cnc5cc(F)ccn45)c4c3C(=O)NC4)nc2)CCO1)C1CC1 [I-494, 7-[[5-[(2R)-2-[[cyclopropyl (methyl)amino]methyl]morph-olin-4-yl]-2-pyridyl]amino]-4-(7-fluoroimidazo [1,2-a]pyridin-yl)isoindolin-1-one], the IC50 was under 100 nM.
Cn1ccc2c(-c3ncc(Nc4ccc([C@@H]5CCOC5)c(CN5CC[C@H](O)C5)n4)c4c3CNC4=O)ccnc21 [I-811, 7-((6-(((S)-3-hydroxypyrroli-din-1-yl)methyl)-5-((S)-THF-3-yl)pyridin-2-yl)amino)-4-(1-methyl-1H-pyrrolo[2,3-b]pyridin-4-yl)-2,3-dihydro-1H-pyrrolo[3,4-c]pyridin-1-one] showed an IC50 of under 100 nM.

From patent US11021481B2, “Substituted isoindolin-1-ones and 2,3-dihydro-1h-pyrrolo[3,4-c]pyridin-1-ones as HPK1 antagonists” (Nimbus Saturn, Inc., priority 2019, dated 2021)
